Data as given in PMC11991097 (2025).

How the values were obtained:
[1] = tested on: Del-1 (DNA, aptamer) ACCGACCGTGCTGGACTCTAAGGTGGAGTTATAGGCTTACTGCCACGTCAGTATGAGCGAGCGTTGCG; assay: magnetic bead elution; AuNP/PDDA colorimetry; settings: 50 μg/mL (beads), 2 μg/mL (colorimetry, MOPS); elution much lower than Del; ΔA650/A520 about 0.4
[2] = tested on: Del-1 (DNA, aptamer) ACCGACCGTGCTGGACTCTAAGGTGGAGTTATAGGCTTACTGCCACGTCAGTATGAGCGAGCGTTGCG; assay: magnetic bead elution, ssDNA absorbance, nonlinear fit; settings: PBS screening buffer; room temperature, 2 h; Del fixed 50 μg/mL, aptamer varied 50–500 nM; capture strand P displaced

Row | binding [1] | Kd [2] [µM] | SMILES
1 | weak | – | CC1(C)C(C(=O)OC(C#N)c2cccc(Oc3ccccc3)c2)C1(C)C (stereo not drawn)
2 | weak | – | CC1(C)C(C=C(Cl)Cl)C1C(=O)OC(C#N)c1cccc(Oc2ccccc2)c1 (stereo not drawn)
3 | – | 0.0829 ± 0.006272 | CC1(C)[C@H](C(=O)O[C@H](C#N)c2cccc(Oc3ccccc3)c2)[C@@H]1C=C(Br)Br
